Results: paper PMC10272112 (Nature Communications, 2023)
Where two headings read alike, the source gives them in different places.

Columns and labels:
HDAC10 = target: T1, HDAC10 (Homo sapiens, UniProt Q969S8); assay: Chemoproteomic competition pulldown assay; assay type: binding
T1 construct: host or cells: HeLa mono-clones, stably expressing
T1 sequence (Q969S8 1-669): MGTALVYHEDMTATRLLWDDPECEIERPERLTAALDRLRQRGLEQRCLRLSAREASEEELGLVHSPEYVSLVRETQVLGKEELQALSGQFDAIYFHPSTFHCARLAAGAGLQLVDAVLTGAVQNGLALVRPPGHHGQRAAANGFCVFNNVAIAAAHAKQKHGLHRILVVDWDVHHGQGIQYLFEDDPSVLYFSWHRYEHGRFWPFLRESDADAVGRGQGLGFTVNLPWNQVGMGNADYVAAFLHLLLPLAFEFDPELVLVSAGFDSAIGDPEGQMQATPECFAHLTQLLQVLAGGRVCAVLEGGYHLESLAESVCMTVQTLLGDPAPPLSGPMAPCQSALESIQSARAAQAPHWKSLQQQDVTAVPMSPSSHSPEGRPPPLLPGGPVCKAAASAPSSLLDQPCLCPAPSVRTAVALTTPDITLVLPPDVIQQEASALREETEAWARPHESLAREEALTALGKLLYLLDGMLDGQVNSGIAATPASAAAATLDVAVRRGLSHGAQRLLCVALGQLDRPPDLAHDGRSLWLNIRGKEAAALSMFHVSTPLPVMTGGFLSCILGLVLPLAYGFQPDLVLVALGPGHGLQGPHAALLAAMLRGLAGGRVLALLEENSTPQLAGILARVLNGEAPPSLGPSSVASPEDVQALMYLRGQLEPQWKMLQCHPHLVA
Procedure: (§1) To identify proteins directly bound by lipoic acid, we employed a chemoproteomic competition assay. Briefly, (R/S)-LA was immobilized on sepharose beads via an amidation reaction to form an affinity matrix (abbreviated as iL; Fig. 1a). This affinity matrix can be incubated with cell lysate to pull down potential LA or LM target proteins and identify these targets via bottom-up proteomics. In a competition assay, free LA or LM were incubated with lysate at different concentrations before pulling down and quantifying target proteins. […] (Fig. 1b, see “Methods” for details). […] The lysate buffer used in this assay contains 1 mM DTT to mimic the intracellular reductive milieu and to reduce lipoic acid and LM. […] Additional competition assays performed in lung adenocarcinoma cell A549 lysate also identified HDAC1, HDAC2, and HDAC6 as targets (Supplementary Fig. 1b). Amongst the three cell lines tested, HDACs were the only confidently identified targets across the 1500–3000 proteins quantified in these assays. […] We validated the results by analogous pulldown competition assays using two other affinity matrices prepared via the immobilization of either the HDAC inhibitor Quisinostat (iQ) and an analog of the class IIa HDAC inhibitor Bürli’s 31[14] (iC)[12]. We have previously shown that these affinity matrices specifically bind to the active sites of HDACs and have used them for HDACi selectivity profiling. Indeed, binding of (R/S)-LA and (R/S)-LM to HDAC1, HDAC2, HDAC3, HDAC6, and, to a lesser extent, HDAC8 was confirmed in these assays (Supplementary Fig. 1c, d). No binding to class IIa HDACs or the recently discovered common HDAC inhibitor off-target MBLAC2 was observed (Supplementary Fig. 1e)[12]. […] This observation might reflect electrostatic repulsion between the HDAC10 active site gate-keeper glutamic acid residues[15],[16] and the terminal carboxylic acid of LA.
(§2) To assess the degree of protein depletion from lysates by the affinity matrix, a second pulldown (PDPD) with fresh beads was performed using the unbound protein fraction from the vehicle control flow through. The beads were washed (1 × 1 mL of lysis buffer without inhibitors and only 0.4% Igepal, 2 × 2 mL of lysis buffer without inhibitors and only 0.2% Igepal), and captured proteins were denatured with 8 M urea buffer, alkylated with 55 mM chloroacetamide and digested with Trypsin according to standard procedures. The resulting peptides were desalted on a C18 filter plate (Sep-Pak® tC18 µElution Plate, Waters), vacuum dried, and stored at −20 °C until LC–MSMS measurement.
(§3) For the competition assays, relative binding was calculated based on the protein intensity ratio to the DMSO control for every single inhibitor concentration. EC50 values were derived from a four-parameter log-logistic regression with variable slope (constrain: bottom > 0). The obtained EC50 values were multiplied with a protein-dependent correction factor (cf), resulting in the apparent Kd value (Kd^app). The correction factor is determined by calculating the ratio of the protein intensity of two consecutive pulldowns of the vehicle control sample[13]. Targets of the inhibitors were annotated manually according to published procedures[12],[46],[47]. […] Additionally, the number of unique peptides and MSMS counts per condition were taken into account. Positive target binding across several independent experiments performed with different cell lysates further substantiated our confidence for a true positive drug-target binding event.

HMG20B = assay: Chemoproteomic competition pulldown assay (co-competed CoREST partner); assay type: binding
Procedure: as §1, §2, §3

DDX3X AcK118 = assay: DDX3X acetylation detection by western blot, CBP-HA transfected HEK293T; assay type: cell-based
Procedure: 0.2 × 10^6 HEK293T (ATCC: CRL-3216) cells were transfected with pcDNA 3.1-HA CBP plasmids (1 μg/well for the 6-well plate) by FuGENE. After 2 days, cells were treated with ACY-738, lipoic acid, and lipoamide for 7 h, then were washed by ice-cold PBS and lysed in Triton lysis buffer (50 mM Tris, pH 8.0, 150 mM NaCl, 1 mM EDTA, 0.1% TritonX-100 and complete EDTA-free protease inhibitors (Roche)) for analysis. To detect protein acetylation, 0.2 μM Trichostatin A and 5 mM nicotinamide were added to PBS for washing, and 10 μM trichostatin A, 10 mM nicotinamide, and 50 mM sodium butyrate were added to Triton lysis buffer.

[1] = iQ, SW620, read-out: pKdapp (converted)
[2] = iQ, SW620 lysate, log10 M -3.52288
[3] = iQ, SW620 lysate, log10 M -4.52288
[4] = iQ, SW620 lysate, log10 M -5.52288
[5] = iQ, SW620 lysate, log10 M -6.52288
[6] = iL, MV4-11 lysate, log10 M -3.52288
[7] = iL, MV4-11 lysate, log10 M -4.52288
[8] = iL, MV4-11 lysate, log10 M -5.52288
[9] = iL, MV4-11 lysate, log10 M -6.52288

O=C(O)CCCCC1CCSS1 (racemic) [(R/S)-LA, (R/S)-lipoic acid]
HDAC10 binding in competition assays (HDAC10): does not bind HDAC10 | Kd (HDAC10; [1]): > 316 µM | relative binding vs DMSO (HDAC10; [2]): 0.8351 | relative binding vs DMSO (HDAC10; iQ, SW620 lysate, log10 M -4): 1.0789 | relative binding vs DMSO (HDAC10; [3]): 0.7975 | relative binding vs DMSO (HDAC10; iQ, SW620 lysate, log10 M -5): 1.279 | relative binding vs DMSO (HDAC10; [4]): 1.261 | relative binding vs DMSO (HDAC10; iQ, SW620 lysate, log10 M -6): 1.294 | relative binding vs DMSO (HDAC10; [5]): 1.332 | relative binding vs DMSO (HDAC10; iQ, SW620 lysate, log10 M -7): 1.395 | relative binding vs DMSO (HMG20B; iL, A549 lysate, log10 M -4): 0.09481 | relative binding vs DMSO (HMG20B; iL, A549 lysate, log10 M -4.52288): 0 | relative binding vs DMSO (HMG20B; iL, A549 lysate, log10 M -5): 0 | relative binding vs DMSO (HMG20B; iL, A549 lysate, log10 M -5.52288): 0 | relative binding vs DMSO (HMG20B; iL, A549 lysate, log10 M -6): 0.5309 | relative binding vs DMSO (HMG20B; iL, A549 lysate, log10 M -6.52288): 1.1771 | relative binding vs DMSO (HMG20B; iL, A549 lysate, log10 M -7.52288): 1.54 | relative binding vs DMSO (HMG20B; iL, A549 lysate, log10 M -8): 1.531 | relative binding vs DMSO (HMG20B; iL, A549 lysate, log10 M -8.52288): 0.9986 | relative binding vs DMSO (HMG20B; [2]): 0.2338 | relative binding vs DMSO (HMG20B; iQ, SW620 lysate, log10 M -4): 0.0385 | relative binding vs DMSO (HMG20B; [3]): 0.4714 | relative binding vs DMSO (HMG20B; iQ, SW620 lysate, log10 M -5): 0.5482 | relative binding vs DMSO (HMG20B; [4]): 0.8626 | relative binding vs DMSO (HMG20B; iQ, SW620 lysate, log10 M -6): 0.8649 | relative binding vs DMSO (HMG20B; [5]): 1.158 | relative binding vs DMSO (HMG20B; iQ, SW620 lysate, log10 M -7): 1.067 | DDX3X AcK118 acetylation level relative to control (DDX3X AcK118; 1 mM): 2.4 fold | DDX3X AcK118 acetylation level relative to control (DDX3X AcK118; .5 (mM)): 1.8 fold

NC(=O)CCCCC1CCSS1 (racemic) [(R/S)-LM, (R/S)-lipoamide]
HDAC10 binding in competition assays (HDAC10): binds HDAC10 with an even higher affinity than other HDACs | relative binding vs DMSO (HDAC10; [6]): 0.04424 | relative binding vs DMSO (HDAC10; iL, MV4-11 lysate, log10 M -4): 0.1432 | relative binding vs DMSO (HDAC10; [7]): 0.2397 | relative binding vs DMSO (HDAC10; iL, MV4-11 lysate, log10 M -5): 0.4705 | relative binding vs DMSO (HDAC10; [8]): 0.6761 | relative binding vs DMSO (HDAC10; iL, MV4-11 lysate, log10 M -6): 0.5589 | relative binding vs DMSO (HDAC10; [9]): 0.7984 | relative binding vs DMSO (HDAC10; iL, MV4-11 lysate, log10 M -7): 0.7331 | Kd (HDAC10; iL, MV4-11 lysate, read-out: Kd app): 5 µM | Kd (HDAC10; iL, MV411, read-out: pKdapp (converted)): 3.16 µM | Kd (HDAC10; [1]): 3.16 µM | relative binding vs DMSO (HDAC10; [2]): 0.03275 | relative binding vs DMSO (HDAC10; iQ, SW620 lysate, log10 M -4): 0.4253 | relative binding vs DMSO (HDAC10; [3]): 0.3482 | relative binding vs DMSO (HDAC10; iQ, SW620 lysate, log10 M -5): 0.4143 | relative binding vs DMSO (HDAC10; [4]): 0.681 | relative binding vs DMSO (HDAC10; iQ, SW620 lysate, log10 M -6): 0.6621 | relative binding vs DMSO (HDAC10; [5]): 0.6582 | relative binding vs DMSO (HDAC10; iQ, SW620 lysate, log10 M -7): 0.9909 | relative binding vs DMSO (HMG20B; [6]): 0.0242 | relative binding vs DMSO (HMG20B; iL, MV4-11 lysate, log10 M -4): 0.0521 | relative binding vs DMSO (HMG20B; [7]): 0.1443 | relative binding vs DMSO (HMG20B; iL, MV4-11 lysate, log10 M -5): 0.4724 | relative binding vs DMSO (HMG20B; [8]): 0.6292 | relative binding vs DMSO (HMG20B; iL, MV4-11 lysate, log10 M -6): 0.8935 | relative binding vs DMSO (HMG20B; [9]): 0.8513 | relative binding vs DMSO (HMG20B; iL, MV4-11 lysate, log10 M -7): 1.055 | DDX3X AcK118 acetylation level relative to control (DDX3X AcK118; 1 mM): 2.4 fold | DDX3X AcK118 acetylation level relative to control (DDX3X AcK118; .5 (mM)): 2.1 fold
